How the values were obtained:
[1] = test system: Beet Armyworm (Spodoptera exigua); experiment: Bioassay on Beet Armyworm (BAW), 128-well diet tray assay; assay type: in vivo; details: Beet Armyworm, Table ABC, read-out: BAW rating
Procedure, shortened: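 Second-instar larvae (one to five per well) placed on artificial diet surface-treated with 50 μg/cm^2 test molecule in 90:10 acetone-water, dried, eight wells per molecule. Held at 25° C, 14:10 light-dark, five to seven days; percent mortality recorded per well and averaged across the eight wells.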

[2] = test system: Cabbage Looper (Trichoplusia ni); experiment: Bioassay on Cabbage Looper (CL), 128-well diet tray assay; assay type: in vivo; details: Cabbage Looper, Table ABC, read-out: CL rating
Procedure, shortened: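 Second-instar larvae, one to five per well, placed on artificial diet surface-treated with 50 μg/cm^2 compound in acetone-water, eight wells per compound. Held 5-7 days at 25° C, 14:10 light-dark; percent mortality per well averaged across wells.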

Row | Compound | pest or weed control at 50 µg/cm2 [1] [%] | pest or weed control at 50 µg/cm2 [2] [%]
1 | CC(F)(F)C(/C=C(\F)c1ccc(C(=O)NCC(=O)NCC(F)(F)F)c(C(F)(F)F)c1)c1ccc(Cl)c(Cl)c1 (centres unmarked) [F129, (Z)-4-(3-(3,4-Dichlorophenyl)-1,4,4-trifluoropent-1-en-1-yl)-N-(2-oxo-2-((2,2,2-trifluoroethyl)amino)ethyl)-2-(trifluoromethyl)benzamide] | 50 to 100 | 50 to 100
2 | C[C@@H](NC(=O)c1ccc(/C(F)=C/C(c2cc(Cl)c(Cl)c(Cl)c2)C(F)(F)F)cc1C(F)(F)F)C(=O)/C=C/CC(F)(F)F (some centres unmarked) [F140] | 50 to 100 | 50 to 100
3 | C=C(C)c1c(Cl)cc(C(/C=C(\F)c2ccc(C(=O)N[C@H](C)C(=O)NCC(F)(F)F)c(C(F)(F)F)c2)C(F)(F)F)cc1Cl (stereo partly drawn) [F148, 4-((Z)-3-(3,5-Dichloro-4-(prop-1-en-2-yl)phenyl)-1,4,4,4-tetrafluorobut-1-en-1-yl)-N—((R)-1-oxo-1-((2,2,2-trifluoroethyl)amino)propan-2-yl)-2-(trifluoromethyl)benzamide] | 50 to 100 | 50 to 100
4 | O=C(N[C@@H]1CON(CC(F)(F)F)C1=O)c1ccc(/C(F)=C/C(c2ccc(F)c(C(F)(F)F)c2)C(F)(F)F)cc1C(F)(F)F (stereo partly drawn) [F150, N—((R)-3-Oxo-2-(2,2,2-trifluoroethyl)isoxazolidin-4-yl)-4-((2)-1,4,4,4-tetrafluoro-3-(4-fluoro-3-(trifluoromethyl)phenyl)but-1-en-1-yl)-2-(trifluoromethyl)benzamide] | 50 to 100 | 50 to 100
5 | C[C@@H](NC(=O)c1ccc(/C(F)=C/C(c2cc(F)c(F)c(Cl)c2)C(F)(F)F)cc1C(F)(F)F)C(=O)NCC(F)(F)F (stereo partly drawn) [F154, 4-((Z)-3-(3-Chloro-4,5-difluorophenyl)-1,4,4,4-tetrafluorobut-1-en-1-yl)-N—((R)-1-oxo-1-((2,2,2-trifluoroethyl)amino)propan-2-yl)-2-(trifluoromethyl)benzamide] | 50 to 100 | 50 to 100
6 | COc1ccc(C(/C=C(\F)c2ccc(C(=O)NCC(=O)NCC(F)(F)F)c(C(F)(F)F)c2)C(F)(F)F)cc1Cl (centres unmarked) [F158, (Z)-4-(3-(3-Chloro-4-methoxyphenyl)-1,4,4,4-tetrafluorobut-1-en-1-yl)-N-(2-oxo-2-((2,2,2-trifluoroethyl)amino)ethyl)-2-(trifluoromethyl)benzamide] | 50 to 100 | 50 to 100
7 | C[C@@H](NC(=O)c1ccc(/C(F)=C/C(c2ccc(OCC(F)(F)F)c(Cl)c2)C(F)(F)F)cc1C(F)(F)F)C(=O)NCC(F)(F)F (stereo partly drawn) [F162, 4-((Z)-3-(3-Chloro-4-(2,2,2-trifluoroethoxy)phenyl)-1,4,4,4-tetrafluorobut-1-en-1-yl)-N—((R)-1-oxo-1-((2,2,2-trifluoroethyl)amino)propan-2-yl)-2-(trifluoromethyl)benzamide] | 50 to 100 | 50 to 100
8 | COC(=O)CC(NC(=O)c1ccc(/C(F)=C/C(c2cc(Cl)c(Cl)c(Cl)c2)C(F)(F)F)cc1C(F)(F)F)C(F)(F)F (centres unmarked) [F166, Methyl (Z)-4,4,4-trifluoro-3-(4-(1,4,4,4-tetrafluoro-3-(3,4,5-trichlorophenyl)but-1-en-1-yl)-2-(trifluoromethyl)benzamido)butanoate] | 50 to 100 | 50 to 100
9 | C[C@@H](NC(=O)c1ccc(/C(F)=C/C(c2cc(Cl)c(Cl)c(Cl)c2)C(F)(F)F)cc1C(F)(F)F)C(=O)NC1CC(F)(F)C1 (stereo partly drawn) [F168, N—((R)-1-((3,3-difluorocyclobutyl)amino)-1-oxopropan-2-yl)-4-((Z)-1,4,4,4-tetrafluoro-3-(3,4,5-trichlorophenyl)but-1-en-1-yl)-2-(trifluoromethyl)benzamide] | 50 to 100 | 50 to 100
10 | C[C@@H](NC(=O)c1ccc(/C(F)=C/C(c2cc(Cl)c(Cl)c(Cl)c2)C(F)(F)F)cc1C(F)(F)F)C(=O)N(O)CC(F)(F)F (stereo partly drawn) [F169, N—((R)-1-(Hydroxy(2,2,2-trifluoroethyl)amino)-1-oxopropan-2-yl)-4-((Z)-1,4,4,4-tetrafluoro-3-(3,4,5-trichlorophenyl)but-1-en-1-yl)-2-(trifluoromethyl)benzamide] | 50 to 100 | 50 to 100
11 | C[C@@H](NC(=O)c1ccc(/C(F)=C/C(c2ccc(Br)c(F)c2)C(F)(F)F)cc1C(F)(F)F)C(=O)NCC(F)(F)F (stereo partly drawn) [F170, 4-((Z)-3-(4-Bromo-3-fluorophenyl)-1,4,4,4-tetrafluorobut-1-en-1-yl)-N—((R)-1-oxo-1-((2,2,2-trifluoroethyl)amino)propan-2-yl)-2-(trifluoromethyl)benzamide] | 50 to 100 | 50 to 100
12 | O=C(N[C@@H]1CCN(CC(F)(F)F)C1=O)c1ccc(/C(F)=C/C(c2cc(Cl)c(Cl)c(Cl)c2)C(F)(F)F)cc1C(F)(F)F (stereo partly drawn) [F171, N—((R)-2-Oxo-1-(2,2,2-trifluoroethyl)pyrrolidin-3-yl)-4-((Z)-1,4,4,4-tetrafluoro-3-(3,4,5-trichlorophenyl)but-1-en-1-yl)-2-(trifluoromethyl)benzamide] | 50 to 100 | 50 to 100
13 | CNC(=O)[C@@H](C)NC(=O)c1ccc(/C(F)=C/C(c2cc(Cl)c(Cl)c(Cl)c2)C(F)(F)F)cc1C(F)(F)F (stereo partly drawn) [F173, N—((R)-1-(Methylamino)-1-oxopropan-2-yl)-4-((Z)-1,4,4,4-tetrafluoro-3-(3,4,5-trichlorophenyl)but-1-en-1-yl)-2-(trifluoromethyl)benzamide] | 50 to 100 | 50 to 100
14 | CCC(F)(F)C(/C=C(\F)c1ccc(C(=O)N[C@H](C)C(=O)NCC(F)(F)F)c(C(F)(F)F)c1)c1cc(Cl)c(Cl)c(Cl)c1 (stereo partly drawn) [F174, N—((R)-1-Oxo-1-((2,2,2-trifluoroethyl)amino)propan-2-yl)-4-((Z)-1,4,4-trifluoro-3-(3,4,5-trichlorophenyl)hex-1-en-1-yl)-2-(trifluoromethyl)benzamide] | 50 to 100 | 50 to 100
15 | C[C@@H](NC(=O)c1ccc(/C(F)=C/C(c2cc(Cl)cc(C(C)(F)F)c2)C(F)(F)F)cc1C(F)(F)F)C(=O)NCC(F)(F)F (stereo partly drawn) [F175, 4-((Z)-3-(3-Chloro-5-(1,1-difluoroethyl)phenyl)-1,4,4,4-tetrafluorobut-1-en-1-yl)-N—((R)-1-oxo-1-((2,2,2-trifluoroethyl)amino)propan-2-yl)-2-(trifluoromethyl)benzamide] | 50 to 100 | 50 to 100
16 | C[C@@H](NC(=O)c1ccc(/C(F)=C/C(c2cc(Cl)cc(CC(F)(F)F)c2)C(F)(F)F)cc1C(F)(F)F)C(=O)NCC(F)(F)F (stereo partly drawn) [F176, 4-((Z)-3-(3-Chloro-5-(2,2,2-trifluoroethyl)phenyl)-1,4,4,4-tetrafluorobut-1-en-1-yl)-N—((R)-1-oxo-1-((2,2,2-trifluoroethyl)amino)propan-2-yl)-2-(trifluoromethyl)benzamide] | 50 to 100 | 50 to 100
17 | O=C(N[C@@H]1CON(CC(F)(F)F)C1=O)c1ccc(/C(F)=C/C(c2cc(Cl)cc(CC(F)(F)F)c2)C(F)(F)F)cc1C(F)(F)F (stereo partly drawn) [F178, 4-((Z)-3-(3-Chloro-5-(2,2,2-trifluoroethyl)phenyl)-1,4,4,4-tetrafluorobut-1-en-1-yl)-N—((R)-3-oxo-2-(2,2,2-trifluoroethyl)isoxazolidin-4-yl)-2-(trifluoromethyl)benzamide] | 50 to 100 | 50 to 100
18 | C[C@@H](NC(=O)c1ccc(/C(F)=C/C(c2cc(Cl)cc(OC(F)(F)F)c2)C(F)(F)F)cc1C(F)(F)F)C(=O)NCC(F)(F)F (stereo partly drawn) [F181, 4-((Z)-3-(3-Chloro-5-(trifluoromethoxy)phenyl)-1,4,4,4-tetrafluorobut-1-en-1-yl)-N—((R)-1-oxo-1-((2,2,2-trifluoroethyl)amino)propan-2-yl)-2-(trifluoromethyl)benzamide] | 50 to 100 | 50 to 100
19 | C[C@@H](NC(=O)c1ccc(/C(F)=C/C(c2ccc(OC(F)(F)F)c(Cl)c2)C(F)(F)F)cc1C(F)(F)F)C(=O)NCC(F)(F)F (stereo partly drawn) [F182, 4-((Z)-3-(3-Chloro-4-(trifluoromethoxy)phenyl)-1,4,4,4-tetrafluorobut-1-en-1-yl)-N—((R)-1-oxo-1-((2,2,2-trifluoroethyl)amino)propan-2-yl)-2-(trifluoromethyl)benzamide] | 50 to 100 | 50 to 100
20 | C[C@@H](NC(=O)c1ccc(/C(F)=C/C(c2ccc(Cl)c(OC(F)(F)F)c2)C(F)(F)F)cc1C(F)(F)F)C(=O)NCC(F)(F)F (stereo partly drawn) [F183, 4-((Z)-3-(4-Chloro-3-(trifluoromethoxy)phenyl)-1,4,4,4-tetrafluorobut-1-en-1-yl)-N—((R)-1-oxo-1-((2,2,2-trifluoroethyl)amino)propan-2-yl)-2-(trifluoromethyl)benzamide] | 50 to 100 | 50 to 100
21 | C=Cc1cc(C(/C=C(\F)c2ccc(C(=O)N[C@H](C)C(=O)NCC(F)(F)F)c(C(F)(F)F)c2)C(F)(F)F)cc(C=C)c1Cl (stereo partly drawn) [F184, 4-((Z)-3-(4-Chloro-3,5-divinylphenyl)-1,4,4,4-tetrafluorobut-1-en-1-yl)-N—((R)-1-oxo-1-((2,2,2-trifluoroethyl)amino)propan-2-yl)-2-(trifluoromethyl)benzamide] | 50 to 100 | 50 to 100
22 | C[C@@H](NC(=O)c1ccc(/C(F)=C/C(c2cc(Cl)c(Cl)c(Br)c2)C(F)(F)F)cc1C(F)(F)F)C(=O)NCC(F)(F)F (stereo partly drawn) [F185, 4-((Z)-3-(3-Bromo-4,5-dichlorophenyl)-1,4,4,4-tetrafluorobut-1-en-1-yl)-N—((R)-1-oxo-1-((2,2,2-trifluoroethyl)amino)propan-2-yl)-2-(trifluoromethyl)benzamide] | 50 to 100 | 50 to 100
